{
  "source": "patent US11298333B1",
  "about": "“Methods of reducing the risk of cardiovascular events in a subject” (Amarin Pharmaceuticals Ireland Limited, priority 2018, dated 2022)",
  "test_system": "hypertriglyceridemic patients with cardiovascular disease or at high risk for cardiovascular disease",
  "assay_type": "in vivo",
  "conditions": "for Key secondary composite endpoint: relative risk reduction vs placebo / Primary composite endpoint: relative risk reduction vs placebo: over 5 years",
  "source_text": "The following study, also referred to as the REDUCE-IT clinical trial, was a large cardiovascular (CV) outcome trial designed to assess CV risk reduction benefit of AMR101 treatment (commercially known as VASCEPA®) versus placebo on the 5-point primary composite endpoint: CV death, non-fatal stroke, non-fatal myocardial infarction (MI), coronary revascularizations, or unstable angina requiring hospitalization.\nA multi-center, prospective, randomized, double-blind, placebo-controlled, parallel-group study was performed to evaluate the effect of AMR101 (4 g per day) on cardiovascular health and mortality in hypertriglyceridemic patients with cardiovascular disease or at high risk for cardiovascular disease. The intended expanded indication of the study was treatment with AMR101 as an add-on to statin therapy to reduce the risk of cardiovascular events in patients with clinical cardiovascular disease or with multiple risk factors for cardiovascular disease.\nThe primary objective of this study was, in patients at LDL-C goal while on statin therapy, with established cardiovascular disease (CVD) or at high risk for CVD, and hypertriglyceridemia (e.g., fasting triglycerides (TG) ≥200 mg/dL and <500 mg/dL), to evaluate the effect of AMR101 4 g daily on time from randomization to first occurrence of any component of the composite of the following major CV events: CV death; nonfatal MI; (including silent MI; electrocardiograms (ECGs) were performed annually for the detection of silent MIs); nonfatal stroke; coronary revascularization; and unstable angina determined to be caused by myocardial ischemia by invasive/non-invasive testing and requiring emergent hospitalization.\nThe key secondary objective of this study was to evaluate the effect of AMR101 4 g daily on the time from randomization to the first occurrence of the composite of following major CV events: CV death, nonfatal MI (including silent MI), and nonfatal stroke.\nOther secondary objectives for this study were to evaluate the effect of therapy on time from randomization to the first occurrence of the following individual or composite endpoints: composite of CV death or nonfatal MI (including silent MI); fatal or nonfatal MI (including silent MI); non-elective coronary revascularization represented as the composite of emergent or urgent classifications; CV death; unstable angina determined to be caused by myocardial ischemia by invasive/non-invasive testing and requiring emergent hospitalization; fatal or nonfatal stroke; composite of total mortality, nonfatal MI (including silent MI), or nonfatal stroke; and total mortality.\nPrimary Efficacy Endpoint: The primary efficacy endpoint was time from randomization to the first occurrence of the composite of the following clinical events: CV death; nonfatal MI (including silent MI; ECGs were performed annually for the detection of silent MIs); nonfatal stroke; coronary revascularization; and unstable angina determined to be caused by myocardial ischemia by invasive/non-invasive testing and requiring emergent hospitalization. The first occurrence of any of these major adverse vascular events during the follow-up period of the study were included in the incidence.\nSecondary Efficacy Endpoints: The key secondary efficacy endpoint was the time from randomization to the first occurrence of the composite of CV death, nonfatal MI (including silent MI), or nonfatal stroke. […]",
  "key": {"[1]": {"conditions": "4 g/day, ITT, hierarchical secondary endpoint"}, "[2]": {"conditions": "4 g/day, ITT, median follow-up 4.9 years"}, "[3]": {"conditions": "4 g/day, ITT, time to first event, median follow-up 4.9 years"}, "[4]": {"conditions": "4 g/day, ITT, time to first event"}, "[5]": {"conditions": "4 g/day, ITT, time to first event, listed as AMR101"}},
  "note": "Like-named read-outs stand apart in the source and are kept apart here.",
  "data": [
    {"smiles": "CC/C=C\\C/C=C\\C/C=C\\C/C=C\\C/C=C\\CCCC(=O)OCC", "note": "[Icosapent Ethyl, eicosapentaenoic acid ethyl ester]", "values": [
      {"measurement": "Cardiac arrest: reduction vs placebo", "setting": "4 g/day", "result": 48, "unit": "%"},
      {"measurement": "Reduction in heart attack vs placebo", "setting": "4 g/day", "result": 31, "unit": "%"},
      {"measurement": "Sudden death: reduction vs placebo", "setting": "4 g/day", "result": 31, "unit": "%"},
      {"measurement": "Cardiovascular death: relative risk reduction vs placebo", "setting": "4 g/day, ITT", "result": 20, "unit": "%"},
      {"measurement": "Composite of cardiovascular death or nonfatal myocardial infarction: RRR", "setting": "4 g/day, ITT", "result": 25, "unit": "%"},
      {"measurement": "Composite of total mortality, nonfatal myocardial infarction, or nonfatal stroke: RRR", "setting": "4 g/day, ITT", "result": 23, "unit": "%"},
      {"measurement": "Fatal or nonfatal myocardial infarction: RRR", "setting": "4 g/day, ITT", "result": 31, "unit": "%"},
      {"measurement": "Fatal or nonfatal stroke: RRR", "setting": "4 g/day, ITT", "result": 28, "unit": "%"},
      {"measurement": "Total mortality: HR vs placebo", "setting": "4 g/day, ITT", "result": 0.87},
      {"measurement": "Total mortality: relative risk reduction vs placebo", "setting": "4 g/day, ITT", "result": 13, "unit": "%"},
      {"measurement": "Cardiovascular death: HR vs placebo", "setting": "[1]", "result": 0.80},
      {"measurement": "Cardiovascular death: patients with event", "setting": "[1]", "result": 4.3, "unit": "%"},
      {"measurement": "Total mortality (death from any cause): patients with event", "setting": "4 g/day, ITT, last hierarchical secondary endpoint", "result": 6.7, "unit": "%"},
      {"measurement": "Key secondary composite endpoint: absolute risk reduction vs placebo", "setting": "[2]", "result": 3.6, "unit": "%"},
      {"measurement": "Primary composite endpoint: absolute risk reduction vs placebo", "setting": "[2]", "result": 4.8, "unit": "%"},
      {"measurement": "Key secondary composite endpoint (CV death, nonfatal MI, or nonfatal stroke): patients with event", "setting": "[3]", "result": 11.2, "unit": "%"},
      {"measurement": "Primary composite endpoint (CV death, nonfatal MI, nonfatal stroke, coronary revascularization, or unstable angina): patients with event", "setting": "[3]", "result": 17.2, "unit": "%"},
      {"measurement": "Key secondary composite endpoint: relative risk reduction vs placebo", "setting": "[4]", "result": 26, "unit": "%"},
      {"measurement": "Primary composite endpoint: relative risk reduction vs placebo", "setting": "[4]", "result": 25, "unit": "%"},
      {"measurement": "Key secondary composite endpoint: relative risk reduction vs placebo", "setting": "[5]", "result": 26, "unit": "%"},
      {"measurement": "Primary composite endpoint: relative risk reduction vs placebo", "setting": "[5]", "result": 25, "unit": "%"},
      {"measurement": "Adjudicated tertiary endpoint of heart failure: patients with event", "setting": "4 g/day, no significant difference vs placebo", "result": 4.1, "unit": "%"},
      {"measurement": "Primary endpoint: risk reduction in post hoc analysis excluding patients with diarrhea", "setting": "post hoc", "result": 25, "unit": "%"},
      {"measurement": "Adjudicated sudden cardiac death: patients with event", "setting": "tertiary endpoint, 4 g/day, ITT", "result": 1.5, "unit": "%"},
      {"measurement": "Cardiac Arrest: HR (95% CI)", "setting": "tertiary endpoint, vs placebo", "result": "0.52 (0.31, 0.86)"},
      {"measurement": "Coronary Revascularization: HR (95% CI)", "setting": "tertiary endpoint, vs placebo", "result": "0.66 (0.58, 0.76)"},
      {"measurement": "Elective Revascularization: HR (95% CI)", "setting": "tertiary endpoint, vs placebo", "result": "0.68 (0.57, 0.82)"},
      {"measurement": "Emergent Revascularization: HR (95% CI)", "setting": "tertiary endpoint, vs placebo", "result": "0.62 (0.42, 0.92)"},
      {"measurement": "Ischemic Stroke: HR (95% CI)", "setting": "tertiary endpoint, vs placebo", "result": "0.64 (0.49, 0.85)"},
      {"measurement": "New Heart Failure Requiring Hospitalization: HR (95% CI)", "setting": "tertiary endpoint, vs placebo", "result": "0.97 (0.77, 1.22)"},
      {"measurement": "New Heart Failure: HR (95% CI)", "setting": "tertiary endpoint, vs placebo", "result": "0.95 (0.77, 1.17)"},
      {"measurement": "Primary Endpoint in Patients with Diabetes at Baseline: HR (95% CI)", "setting": "tertiary endpoint, vs placebo", "result": "0.77 (0.68, 0.87)"},
      {"measurement": "Salvage Revascularization: HR (95% CI)", "setting": "tertiary endpoint, vs placebo", "result": "0.00 (0.00, —)"},
      {"measurement": "Urgent Revascularization: HR (95% CI)", "setting": "tertiary endpoint, vs placebo", "result": "0.66 (0.54, 0.79)"}
    ]}
  ]
}
